In patent US11174299B2, “Peptides and compositions for prevention of cell adhesion and methods of using same” (D[…]., priority 2008, dated 2021):

Columns and labels:
Pseudomonas aeruginosa [1] = test: Prevention of Pseudomonas aeruginosa attachment by synthetic peptides; format: cell-based; conditions: for anti adherence activity on P. aeruginosa: FIG. 3
Experimental: The synthetic peptide grZ28C [[…] (SEQ ID NO: 1)] gave approximately 50% prevention of Pseudomonas aeruginosa attachment at three concentrations: 50, 5 and 0.5 μg/ml (FIG. 1). The activity was similar to that of the AbacZ17C, peptide based on the anemone cytotoxin active region. Abac10C, which was used as a negative control peptide, was synthesized based on the N-terminal sequence of Abac17C, without the active residue [[…] (SEQ ID NO: 27)].
For peptide grZ35 cyc, the peptide sequence […] (SEQ ID NO: 6) which represents the extracellular region, residue 259-292, was synthesized with two Cysteines in the C and N termini and S—S bridged. For peptide grZ28C, the peptide sequence […] (SEQ ID NO: 3) which represents the extracellular region, residue 259-284, was synthesized with two Cysteines in C and N termini.

Pseudomonas aeruginosa [2] = test: Growth test on Pseudomonas aeruginosa; format: cell-based; conditions: FIG. 2, FIG. 4
[3] = Dissolution of peptide in Phosphate Buffer Saline (visual inspection); format: physicochemical
[4] = system: P. aeruginosa strain 6294; test: Bacterial adhesion assay on contact lenses, P. aeruginosa strain 6294; format: cell-based, Pseudomonas aeruginosa; conditions: for log inhibition of P. aeruginosa 6294 adhesion: 18 hours; for percentage of inhibition of P. aeruginosa 6294 adhesion: TLF
Experimental: (§1) The peptide APi1775 (gr14Z-BBC2) according to SEQ ID NO: 28 was immobilized onto Etafilcon A™ (Johnson & Johnson Vision Care Inc., Jacksonville, Fla., USA; Base curve: 8.7 mm, Diameter: 14.0 mm) contact lenses. […] The coating (covalently bonding the peptide to the surface of the contact lenses) procedure was performed by activating the surface of the contact lenses with carboxyl-reactive crosslinker reactive groups EDC (1-ethyl-3-(-3-dimethylaminopropyl) carbodiimide hydrochloride, MW 191.70) followed by incubation with APi1775 (gr14Z-BBC2) at 0.1 μM 1.0 μM and 10 μM peptide concentration. Peptide grZ14s-nyCyc-3PEG-Pal soaked (1 μM) contact lenses were used as positive control, this peptide is used for non-covalent coating of contact lenses.
(§2) Antimicrobial activity was determined against P. aeruginosa strain 6294 (isolated from a case of microbial keratitis), P. aeruginosa strong biofilm produces strain 142 (isolated from a case of microbial keratitis) and S. aureus strain 31 (isolated from a case of contact lens-induced peripheral ulcer) following established methods. Briefly, P. aeruginosa and S. aureus were grown overnight in tryptone soya broth (TSB; Oxoid, Basingstoke, UK) and re-suspended in 1/10 TSB and PBS respectively to an OD660 nm of 0.1 (1.0×10^8 colony-forming unit (CFU) per ml). The bacterial cell suspensions were then diluted to […] for adhesion assays. Non-coated control, process control, APi1775 peptide coated and grZ14s-nvCyc-3PEG-Pal soaked lenses were washed in PBS and transferred to 1 ml of bacterial suspension in 24 well tissue culture plates (CELESTAR®, Greiner bio-one, Frickenhausen, Germany), and incubated at 37° C. for 18 hours with shaking (120 rpm). For P. aeruginosa strain 6294, the assay was performed with PBS and tear Like Fluid (TFL), for P. aeruginosa strain 142 the assay was performed with PBS and for S. aureus the assay was performed using 1/10 TSB. Lenses were washed three times following incubation with PBS to remove loosely adhered bacteria, then stirred in a vortex mixer rapidly in 2 ml of fresh PBS containing a small magnetic stirring bar. The resulting slurry was serially diluted and 20 μl was added onto nutrient agar (TSA; Oxoid, Basingstoke, UK) for recovery of cells. After incubation at 37° C. for 18 hours, viable microorganisms were enumerated as CFU for each lens. Measurements were performed in triplicates for at least three occasions.
(§3) Data were analyzed using Microsoft Office Excel and Statistical Package for the Social Sciences software version 23.0 (SPSS, Inc., Chicago, Ill.). The bacterial adhesion data were log10 (x+1) transformed prior to analysis where x is the adherent bacteria CFU/lens. Bacterial adhesion, contact lens surface elemental composition, and contact lens parameters were analysed using an independent 2-sample t-test, and expressed with descriptive statistics. Statistical significance was set at 5%.

[5] = system: P. aeruginosa strong biofilm producer strain 142; test: Bacterial adhesion assay on contact lenses, P. aeruginosa strong biofilm producer strain 142; format: cell-based, Pseudomonas aeruginosa; conditions: PBS (No-TLF)
Experimental: as §1, §2, §3

Murine L929 cells = test: In vitro cytotoxicity of immobilised contact lenses (ISO 10993-5, Trypan Blue); format: cell-based; conditions: peptide coated contact lenses (0.1, 1.0, 10.0 μM) on murine L929 monolayer, 24 h
Experimental: Testing in vitro cytotoxicity of APi1775 (gr14Z-BBC2) immobilised contact lenses was performed according to ISO standard 10993-5 standardized procedures. Murine L929 cells were grown to >80% confluency in 24 well tissue culture plates (CELESTAR®, Greiner bio-one, Frickenhausen, Germany) with DMEM cell culture media. The medium was aspirated and replaced with adequate fresh growth medium every 2-3 days. All the test and control contact lenses were washed with sterile PBS prior to the start of the study and then directly placed on the cell monolayer for examination of in vitro cytotoxicity. During this any cytotoxicity of the lenses will disrupt the normal functions of cells beneath and perhaps adjacent to the samples. The samples were incubated overnight at 37° C. with 5% CO2. After 24 hours, cells were stained with vital stain (Trypan Blue; Sigma-Aldrich, St Louis, Mo., USA) and cytotoxicity was assessed using bright field and phase-contrast microscopy. Cytotoxic responses are graded according to a standard key, which quantifies the viability and zonal extent. The samples were used in triplicates.

[6] = lens coated with 0.1 μM peptide, PBS
[7] = lens coated with 1.0 μM peptide, PBS
[8] = lens coated with 10.0 μM peptide, PBS
[9] = lens treated with 0.1 μM peptide
[10] = lens treated with 1.0 μM peptide
[11] = lens treated with 10.0 μM peptide

CSFSQNKSVHSFDYDWYNVSDQADLKNC (SEQ ID NO: 1) [grZ28C]
anti adherence activity on P. aeruginosa (Pseudomonas aeruginosa [1]): anti adherence activity
prevention of Pseudomonas aeruginosa attachment (Pseudomonas aeruginosa [1]; at three concentrations: 50, 5 and 0.5 μg/ml (FIG. 1)): approximately 50%
effect on P. aeruginosa growth (Pseudomonas aeruginosa [2]): not inhibited

SFSQNKSVHSFDYDWYNVSDQADLKNQLGDAGYV (SEQ ID NO: 6) [grZ35 cyc]
anti adherence activity on P. aeruginosa (Pseudomonas aeruginosa [1]): anti adherence activity
effect on P. aeruginosa growth (Pseudomonas aeruginosa [2]): not inhibited

SVHSFDYDWYNV (SEQ ID NO: 28) (immobilized on Etafilcon A contact lens) [APi1775]
dissolution in Phosphate Buffer Saline ([3]; 0.1 μM, 1.0 μM concentration): completely dissolved
dissolution in Phosphate Buffer Saline ([3]; 10.0 μM, rotary shaker at 37° C. overnight, visual inspection): completely dissolved
percentage inhibition of P. aeruginosa 6294 adhesion [4, 6]: 77.1%
log inhibition of P. aeruginosa 6294 adhesion [4, 6]: 0.79 log
percentage inhibition of P. aeruginosa 6294 adhesion [4, 7]: 77.5%
log inhibition of P. aeruginosa 6294 adhesion [4, 7]: 0.83 log
percentage inhibition of P. aeruginosa 6294 adhesion [4, 8]: 47.7%
log inhibition of P. aeruginosa 6294 adhesion [4, 8]: 0.29 log
percentage of inhibition of P. aeruginosa 6294 adhesion [4, 9]: 31.76%
log inhibition of P. aeruginosa 6294 adhesion ([4]; lens treated with 0.1 μM peptide, Tear Like Fluid (TLF)): 0.17 log
percentage of inhibition of P. aeruginosa 6294 adhesion [4, 10]: 80.40%
log inhibition of P. aeruginosa 6294 adhesion ([4]; lens treated with 1.0 μM peptide, Tear Like Fluid (TLF)): 0.71 log
percentage of inhibition of P. aeruginosa 6294 adhesion [4, 11]: 96.64%
log inhibition of P. aeruginosa 6294 adhesion ([4]; lens treated with 10.0 μM peptide, Tear Like Fluid (TLF)): 1.47 log
inhibition of bacterial adhesion, strain 142 [5, 9]: 44.73%
log inhibition of P. aeruginosa strain 142 adhesion [5, 9]: 0.26 log
inhibition of bacterial adhesion, strain 142 [5, 10]: 43.62%
log inhibition of P. aeruginosa strain 142 adhesion [5, 10]: 0.25 log
inhibition of bacterial adhesion, strain 142 [5, 11]: 77.80%
log inhibition of P. aeruginosa strain 142 adhesion [5, 11]: 0.65 log
cytotoxicity to mammalian cells in vitro (Murine L929 cells): not cytotoxic
